# Reference: patent publication EP1674470A1, “Sulfonamido-macrocycles as Tie2 inhibitors” (Schering Aktiengesellschaft, priority 2004, dated 2006)
# System: DU 145
# Assay: Proliferation test (cytotoxicity assay, crystal violet staining)
# Type: cell-based
# Settings: Homo sapiens; cytotoxicity assay using the cell line DU 145
# Experimental: Biological experiment 3: Proliferation test
# To examine cell toxicity a cell proliferation test were established.
# With the cell proliferation test different tumour cell lines (e.g. Du 145) can be examined. The cells were dispensed in RPMI 1640 culture medium, supplied with 10 % (v/v) fetal calf serum plus 1 % (v/v) Penicillin/Streptomycin solution at a cell density of 2.000 cell/100µL medium/per well (96well plate). After three hours the cells were washed with PBS (containing calcium and magnesium). 100 µl of culture medium above with 0.1 % (v/v) fetal calf serum was added and cultured at 37°C and 5% CO2-atmosphere. Next day compounds of the present invention diluted in DMSO for appropriate concentrations were added and further 100 µL culture medium 0.5 % (v/v) fetal calf serum. After 5 days cell culturing at 37°C and 5% CO2-atmosphere cells were washed with PBS. 20 µL of glutaraldehyde solution (11 % (v/v)) is added and the cells were slightly shaken at room temperature for 15 min. After that the cell were washed 3 times and dried in the air. 100 µL of crystal violet solution (0.1 % at pH 3.5) were added and the cells were shaken for 30 min. The cells were washed with tap water and air-dried. The colour is dissolved with 100 µL of acetic acid (10 % (v/v)) under strong shaking for 5 min. The absorption was measured at 595 nm wavelength.
row,SMILES,IC50
1,"COC(=O)c1ccc(-c2cnc3nc2NCCCNS(=O)(=O)c2cccc(c2)N3)cc1 [Example Compound 1.1, methyl 4-[4,4-dioxo-4λ^6-thia-2,5,9-triaza-1(2,4)-pyrimidina-3(1,3)-benzenacyclononaphan-1^5-yl]benzoate]",> 1 µM
2,"CC(=O)c1ccc(-c2cnc3nc2NCCCNS(=O)(=O)c2cccc(c2)N3)cc1 [Example Compound 1.2, 1-[4-[4,4-dioxo-4λ^6-thia-2,5,9-triaza-1(2,4)-pyrimidina-3(1,3)-benzenacyclononaphan-1^5-yl]phenyl]ethanone]",> 1 µM
3,"O=S1(=O)NCCCNc2nc(ncc2-c2ccccc2)Nc2cccc1c2 [Example Compound 1.3, 1^5-phenyl-4-thia-2,5,9-triaza-1(2,4)-pyrimidina-3(1,3)-benzenacyclononaphane 4,4-dioxide]",> 1 µM
4,"COc1ccc(-c2cnc3nc2NCCCNS(=O)(=O)c2cccc(c2)N3)cc1 [Example Compound 1.5, 1^5-(4-methoxyphenyl)-4-thia-2,5,9-triaza-1(2,4)-pyrimidina-3(1,3)-benzenacyclononaphane 4,4-dioxide]",> 1 µM
